Where “and” joins values, the source holds several entries; their conditions need not be identical. Equal entries are not always repeated.
Tests used:
MCF-7 = assay: Antiproliferative MTT assay, MCF-7; format: cell-based, human; details: Homo sapiens, MCF7, read-out: Antiproliferative activity IC50 ± SEM, MCF-7
MDAMB-231 = assay: Antiproliferative MTT assay, MDAMB-231; format: cell-based, human; details: MDAMB-231 breast cancer cell line
EGFR-TK = EGFR-TK (Homo sapiens, UniProt P00533); assay: EGFR inhibitory assay; format: biochemical; details: for IC50: EGFR IC50 ± SEM
PC-3 = assay: Antiproliferative MTT assay, PC-3; format: cell-based; details: Homo sapiens, PC-3, read-out: Antiproliferative activity IC50 ± SEM, PC-3
HCT-116 = assay: Antiproliferative MTT assay, HCT-116; format: cell-based; details: Homo sapiens, HCT-116, read-out: Antiproliferative activity IC50 ± SEM, HCT-116
HER2-TK = HER2-TK (Homo sapiens, UniProt P04626); assay: HER2 inhibitory assay; format: biochemical
[1] = tested on: four human cancer cell lines (HCT-116, PC-3, MCF-7, MDAMB-231); assay: Antiproliferative MTT assay, average over four cancer cell lines; format: cell-based; details: Homo sapiens, average IC50 of the four cancer cell lines
MDA-MB 231 cancer cells = assay: Cell cycle analysis; format: cell-based, human
MDA-MB 231 cells = assay: Apoptosis induction analysis; format: cell-based, human
BRAF^V600E = details: read-out: BRAF^V600E IC50; cited from earlier work

Sequence of HER2-TK (P04626 676-1255 limits assumed): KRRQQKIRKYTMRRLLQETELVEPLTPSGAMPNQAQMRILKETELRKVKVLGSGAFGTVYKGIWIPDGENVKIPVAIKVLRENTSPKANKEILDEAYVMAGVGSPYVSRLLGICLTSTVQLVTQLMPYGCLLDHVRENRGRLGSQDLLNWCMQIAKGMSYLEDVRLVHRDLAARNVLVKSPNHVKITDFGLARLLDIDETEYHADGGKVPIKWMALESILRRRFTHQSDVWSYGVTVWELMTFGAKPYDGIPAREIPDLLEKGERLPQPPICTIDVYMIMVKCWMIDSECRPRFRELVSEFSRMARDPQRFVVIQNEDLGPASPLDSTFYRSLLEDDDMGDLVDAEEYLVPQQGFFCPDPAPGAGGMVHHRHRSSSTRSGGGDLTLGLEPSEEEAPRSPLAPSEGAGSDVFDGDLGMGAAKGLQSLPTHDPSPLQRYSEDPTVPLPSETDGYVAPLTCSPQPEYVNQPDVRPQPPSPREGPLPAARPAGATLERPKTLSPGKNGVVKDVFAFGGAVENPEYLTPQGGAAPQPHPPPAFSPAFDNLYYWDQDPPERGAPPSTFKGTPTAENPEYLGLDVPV
Sequence of EGFR-TK (P00533 669-1210): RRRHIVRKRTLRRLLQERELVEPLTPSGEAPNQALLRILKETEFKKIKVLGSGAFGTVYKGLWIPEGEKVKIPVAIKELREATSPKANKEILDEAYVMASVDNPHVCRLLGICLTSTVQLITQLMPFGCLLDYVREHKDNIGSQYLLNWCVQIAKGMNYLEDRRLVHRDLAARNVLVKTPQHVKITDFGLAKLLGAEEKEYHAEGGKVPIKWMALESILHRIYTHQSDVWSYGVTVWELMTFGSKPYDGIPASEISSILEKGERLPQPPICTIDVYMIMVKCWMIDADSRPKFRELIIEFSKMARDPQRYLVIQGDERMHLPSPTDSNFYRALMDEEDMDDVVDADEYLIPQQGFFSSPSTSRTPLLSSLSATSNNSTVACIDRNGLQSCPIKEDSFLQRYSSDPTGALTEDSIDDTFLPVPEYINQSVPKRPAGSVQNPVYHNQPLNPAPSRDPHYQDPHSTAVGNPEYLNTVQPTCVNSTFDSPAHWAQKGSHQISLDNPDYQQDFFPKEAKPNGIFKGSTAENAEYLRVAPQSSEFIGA

IC50 (MCF-7) [µM]	times less effective as EGFR inhibitors than erlotinib (EGFR-TK)	IC50 (EGFR-TK)	IC50 (PC-3) [µM]	IC50 (HCT-116) [µM]	IC50 (HER2-TK; HER2 IC50 ± SEM, Table 3) [µM]	GI50 [1] [µM]	IC50 (HER2-TK; HER2 IC50, as printed in text) [µM]	Structure (SMILES)	times more potent than sorafenib (MDAMB-231) [times]	Cell cycle analysis, Comment (MDA-MB 231 cancer cells; MDA-MB 231, 24 h, 25 μM)	DNA content % G0–G1 (MDA-MB 231 cancer cells; MDA-MB 231, 24 h, 25 μM) [%]	DNA content % G2/M (MDA-MB 231 cancer cells; MDA-MB 231, 24 h, 25 μM) [%]	DNA content % S (MDA-MB 231 cancer cells; MDA-MB 231, 24 h, 25 μM) [%]	percentage of pre-G1 apoptosis (MDA-MB 231 cancer cells; MDA-MB 231, 24 h incubation) [%]	early apoptosis enhanced more than late apoptosis, fold (MDA-MB 231 cells; MDA-MB 231) [fold]	Apoptosis Early (MDA-MB 231 cells; MDA-MB cancer cells, 24 h)	Apoptosis Late (MDA-MB 231 cells; MDA-MB cancer cells, 24 h)	Apoptosis Total (MDA-MB 231 cells; MDA-MB cancer cells, 24 h)	Necrosis (MDA-MB 231 cells; MDA-MB cancer cells, 24 h)	IC50 (BRAF^V600E) [µM]
6.94 ± 0.4	at least 10 times	0.799 µM and 1.78 µM	9.08 ± 0.8	8.67 ± 0.9	0.505	7		O=C(CN1CCN(c2ccc(Cl)cc2)CC1)Nc1ccc(C(=O)C=Cc2ccco2)cc1 [4n, 2-(4-(4-Chlorophenyl)piperazin-1-yl)-N-(4-(3-(furan-2-yl)acryloyl)phenyl)acetamide]	1.6											
5.05 ± 0.4		0.209 µM	13 ± 1	6.47 ± 0.4	0.101	7	0.061	COc1ccc(N2CCN(CC(=O)Nc3ccc(C4=NN(C(C)=O)C(c5cc(OC)c(OC)c(OC)c5)C4)cc3)CC2)cc1 (stereo not drawn) [5d, N-(4-(1-Acetyl-5-(3,4,5-trimethoxyphenyl)-4,5-dihydro-1H-pyrazol-3-yl)phenyl)-2-(4-(4-methoxyphenyl)piperazin-1-yl)acetamide]	2.7	Cell cycle arrest @ G1	78.53	3.36	18.11	78.53	5	17.13	8.89	29.59	3.57	

— PMC11951252 (RSC Advances, 2025)
